Legend:
Assay type in all cases: cell-based
human TLR9 = biological target: T1, human TLR9 (Homo sapiens, UniProt Q9NR96); assay: TLR9 inhibition reporter assay (HEK-Blue cells, SEAP reporter, ODN2006 stimulation); details: HEK-Blue cells overexpressing human TLR9, SEAP reporter, ODN2006 5 nM
T1 construct: host or cells: HEK-Blue cells
T1 sequence (Q9NR96 26-1032): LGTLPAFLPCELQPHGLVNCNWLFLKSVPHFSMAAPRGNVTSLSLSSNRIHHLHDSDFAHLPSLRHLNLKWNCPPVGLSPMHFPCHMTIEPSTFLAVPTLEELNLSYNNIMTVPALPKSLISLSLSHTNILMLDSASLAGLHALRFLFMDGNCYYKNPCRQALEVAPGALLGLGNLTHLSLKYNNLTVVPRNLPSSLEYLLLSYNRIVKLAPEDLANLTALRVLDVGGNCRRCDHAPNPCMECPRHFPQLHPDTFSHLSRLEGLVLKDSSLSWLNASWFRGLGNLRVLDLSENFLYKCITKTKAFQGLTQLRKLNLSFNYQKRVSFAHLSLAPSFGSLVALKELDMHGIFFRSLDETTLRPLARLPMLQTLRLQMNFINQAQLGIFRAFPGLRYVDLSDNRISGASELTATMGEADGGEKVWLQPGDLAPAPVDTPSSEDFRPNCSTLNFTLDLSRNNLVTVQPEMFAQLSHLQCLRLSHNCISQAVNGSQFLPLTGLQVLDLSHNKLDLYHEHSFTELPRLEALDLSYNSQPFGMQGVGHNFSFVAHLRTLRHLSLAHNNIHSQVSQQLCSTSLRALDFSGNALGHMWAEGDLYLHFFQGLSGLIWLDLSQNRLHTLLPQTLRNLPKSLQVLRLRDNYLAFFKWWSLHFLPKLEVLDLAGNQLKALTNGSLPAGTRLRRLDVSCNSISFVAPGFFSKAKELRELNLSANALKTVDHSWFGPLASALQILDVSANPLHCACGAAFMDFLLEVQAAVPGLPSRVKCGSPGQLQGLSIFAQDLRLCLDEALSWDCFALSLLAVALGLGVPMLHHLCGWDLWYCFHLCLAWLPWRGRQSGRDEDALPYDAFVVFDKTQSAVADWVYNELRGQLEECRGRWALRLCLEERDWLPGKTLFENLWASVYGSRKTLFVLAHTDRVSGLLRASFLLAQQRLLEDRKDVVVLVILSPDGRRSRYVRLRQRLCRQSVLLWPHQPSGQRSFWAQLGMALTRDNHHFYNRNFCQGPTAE
Procedure, shortened: (§1)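 HEK-Blue cells overexpressing human TLR7, TLR8 or TLR9 carry a SEAP reporter driven by NF-κB/AP-1 sites. Compounds (0.05 nM–50 μM) were preincubated 30 min at room temperature, then cells were stimulated with gardiquimod 7.5 μM (TLR7), R848 15.9 μM (TLR8) or ODN2006 5 nM (TLR9) for 22 h at 37 °C.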

human TLR7 = biological target: T2, human TLR7 (Homo sapiens, UniProt Q9NYK1); assay: TLR7 inhibition reporter assay (HEK-Blue cells, SEAP reporter, gardiquimod stimulation); details: HEK-Blue cells overexpressing human TLR7, SEAP reporter, gardiquimod 7.5 μM; read-out: TLR7 IC50
T2 construct: host or cells: HEK-Blue cells
T2 sequence (Q9NYK1 27-1049): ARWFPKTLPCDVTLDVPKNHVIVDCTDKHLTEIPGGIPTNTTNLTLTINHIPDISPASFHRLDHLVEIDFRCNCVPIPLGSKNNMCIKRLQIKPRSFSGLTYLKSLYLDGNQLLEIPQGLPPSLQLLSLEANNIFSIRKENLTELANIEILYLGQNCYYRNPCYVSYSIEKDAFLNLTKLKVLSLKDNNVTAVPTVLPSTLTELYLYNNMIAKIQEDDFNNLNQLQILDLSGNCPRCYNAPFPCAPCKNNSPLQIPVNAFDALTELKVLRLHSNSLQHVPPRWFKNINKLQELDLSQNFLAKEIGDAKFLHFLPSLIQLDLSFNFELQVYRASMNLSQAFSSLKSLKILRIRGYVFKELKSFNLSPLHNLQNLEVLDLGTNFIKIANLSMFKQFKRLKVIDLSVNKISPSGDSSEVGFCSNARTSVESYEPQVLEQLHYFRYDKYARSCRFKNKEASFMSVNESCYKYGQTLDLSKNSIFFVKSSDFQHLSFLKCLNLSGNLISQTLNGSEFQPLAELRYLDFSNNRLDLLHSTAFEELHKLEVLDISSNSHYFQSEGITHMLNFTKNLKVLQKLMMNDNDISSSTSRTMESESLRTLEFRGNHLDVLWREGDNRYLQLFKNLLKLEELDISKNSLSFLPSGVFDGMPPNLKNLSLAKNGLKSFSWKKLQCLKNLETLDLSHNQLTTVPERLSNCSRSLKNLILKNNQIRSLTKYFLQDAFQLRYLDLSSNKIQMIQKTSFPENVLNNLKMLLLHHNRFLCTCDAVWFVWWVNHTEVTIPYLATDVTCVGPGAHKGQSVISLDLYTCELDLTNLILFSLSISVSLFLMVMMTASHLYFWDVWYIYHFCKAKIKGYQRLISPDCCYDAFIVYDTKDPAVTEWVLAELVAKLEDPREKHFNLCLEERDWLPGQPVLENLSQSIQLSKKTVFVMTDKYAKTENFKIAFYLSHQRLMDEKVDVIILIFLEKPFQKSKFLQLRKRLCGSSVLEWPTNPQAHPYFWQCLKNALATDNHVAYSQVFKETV
Procedure, shortened: as §1

human TLR8 = biological target: T3, human TLR8 (Homo sapiens, UniProt Q9NR97); assay: TLR8 inhibition reporter assay (HEK-Blue cells, SEAP reporter, R848 stimulation); details: HEK-Blue cells overexpressing human TLR8, SEAP reporter, R848 15.9 μM; read-out: TLR8 IC50
T3 construct: host or cells: HEK-Blue cells
T3 sequence (Q9NR97 27-1041): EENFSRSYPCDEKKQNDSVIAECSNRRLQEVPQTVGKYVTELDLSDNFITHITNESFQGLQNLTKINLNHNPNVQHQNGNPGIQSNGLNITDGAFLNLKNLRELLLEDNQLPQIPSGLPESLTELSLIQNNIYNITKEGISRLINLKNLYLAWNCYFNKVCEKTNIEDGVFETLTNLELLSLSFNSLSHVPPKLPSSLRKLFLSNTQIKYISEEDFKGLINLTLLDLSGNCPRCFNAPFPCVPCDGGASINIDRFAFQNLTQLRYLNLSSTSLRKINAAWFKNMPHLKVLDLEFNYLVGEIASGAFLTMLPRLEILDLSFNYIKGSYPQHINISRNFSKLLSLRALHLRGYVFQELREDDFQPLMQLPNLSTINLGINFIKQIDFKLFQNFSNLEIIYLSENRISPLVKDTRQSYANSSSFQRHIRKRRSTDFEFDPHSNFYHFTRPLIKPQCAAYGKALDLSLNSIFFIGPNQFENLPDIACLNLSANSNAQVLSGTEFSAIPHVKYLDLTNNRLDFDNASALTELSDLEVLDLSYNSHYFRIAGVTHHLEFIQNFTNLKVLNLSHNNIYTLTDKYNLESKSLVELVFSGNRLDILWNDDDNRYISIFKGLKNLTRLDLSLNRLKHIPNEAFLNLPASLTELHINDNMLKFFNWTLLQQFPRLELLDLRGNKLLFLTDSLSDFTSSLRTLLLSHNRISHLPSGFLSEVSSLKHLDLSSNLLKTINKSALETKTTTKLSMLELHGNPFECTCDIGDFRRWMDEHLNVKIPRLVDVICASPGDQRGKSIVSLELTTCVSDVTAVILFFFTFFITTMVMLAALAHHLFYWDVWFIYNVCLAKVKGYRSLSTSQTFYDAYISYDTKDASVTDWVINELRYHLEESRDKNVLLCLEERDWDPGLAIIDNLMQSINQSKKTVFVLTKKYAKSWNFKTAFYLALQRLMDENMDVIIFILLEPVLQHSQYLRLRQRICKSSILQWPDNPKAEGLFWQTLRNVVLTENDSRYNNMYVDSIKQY
Procedure, shortened: as §1

Row | SMILES | IC50 (human TLR9) | IC50 (human TLR7) | IC50 (human TLR8)
1 | COc1cc(-c2[nH]c3sc(C4CCC(N)CC4)nc3c2C(C)C)cn2ncnc12 (single isomer, unassigned) [Example 92, 4-(6-isopropyl-5-(8-methoxy-[1,2,4]triazolo[1,5-a]pyridin-6-yl)-4H-pyrrolo[3,2-d]thiazol-2-yl)cyclohexan-1-amine] | 4.11 µM | 0.00031 µM | 0.00234 µM
2 | COc1cc(-c2[nH]c3sc(C4CCC(N)CC4)nc3c2C(C)C)cn2ncnc12 (single isomer, unassigned) [Example 93, 4-(6-isopropyl-5-(8-methoxy-[1,2,4]triazolo[1,5-a]pyridin-6-yl)-4H-pyrrolo[3,2-d]thiazol-2-yl)cyclohexan-1-amine] | 12 µM | 0.00189 µM | 0.0156 µM
3 | CCC1(NC2CCC(c3nc4c(C(C)C)c(-c5cc(OC)c6ncnn6c5)[nH]c4s3)CC2)COC1 (single isomer, unassigned) [Example 94, 3-ethyl-N-(4-(6-isopropyl-5-(8-methoxy-[1,2,4]triazolo[1,5-a]pyridin-6-yl)-4H-pyrrolo[3,2-d]thiazol-2-yl)cyclohexyl)oxetan-3-amine] | 40.7 µM | 0.00194 µM | 0.00314 µM
4 | CCC1(NC2CCC(c3nc4c(C(C)C)c(-c5cc(OC)c6ncnn6c5)[nH]c4s3)CC2)COC1 (single isomer, unassigned) [Example 95, 3-ethyl-N-(4-(6-isopropyl-5-(8-methoxy-[1,2,4]triazolo[1,5-a]pyridin-6-yl)-4H-pyrrolo[3,2-d]thiazol-2-yl)cyclohexyl)oxetan-3-amine] | 43.2 µM | 0.0117 µM | 0.0238 µM
5 | COc1cc(-c2[nH]c3sc(C4CCC(N5[C@@H]6CC[C@H]5COC6)CC4)nc3c2C(C)C)cn2ncnc12 (single isomer, unassigned) [Example 104] | 5.6 µM | 0.00198 µM | 0.00281 µM
6 | COc1cc(-c2[nH]c3sc(C4CCC(N5[C@@H]6CC[C@H]5COC6)CC4)nc3c2C(C)C)cn2ncnc12 (single isomer, unassigned) [Example 105] | 2.18 µM | 0.00138 µM | 0.0432 µM

The next lines start with the values.

Row | IC50 (human TLR9) | IC50 (human TLR7) | IC50 (human TLR8) | SMILES
7 | 7.77 µM | 0.00153 µM | 0.00098 µM | COc1cc(-c2[nH]c3sc(C4CCC(N5CC6(C5)CS(=O)(=O)C6)CC4)nc3c2C(C)C)cn2ncnc12 (single isomer, unassigned) [Example 96, 6-(4-(6-isopropyl-5-(8-methoxy-[1,2,4]triazolo[1,5-a]pyridin-6-yl)-4H-pyrrolo[3,2-d]thiazol-2-yl)cyclohexyl)-2-thia-6-azaspiro[3.3]heptane 2,2-dioxide]
8 | 2.98 µM | 0.00012 µM | 0.00137 µM | COc1cc(-c2[nH]c3sc(C4CCC(N5CCCC5)CC4)nc3c2C(C)C)cn2ncnc12 (single isomer, unassigned) [Example 98, 6-isopropyl-5-(8-methoxy-[1,2,4]triazolo[1,5-a]pyridin-6-yl)-2-(4-(pyrrolidin-1-yl)cyclohexyl)-4H-pyrrolo[3,2-d]thiazole]
9 | 3.61 µM | 0.00119 µM | 0.0367 µM | COc1cc(-c2[nH]c3sc(C4CCC(N5CCCC5)CC4)nc3c2C(C)C)cn2ncnc12 (single isomer, unassigned) [Example 99, 6-isopropyl-5-(8-methoxy-[1,2,4]triazolo[1,5-a]pyridin-6-yl)-2-(4-(pyrrolidin-1-yl)cyclohexyl)-4H-pyrrolo[3,2-d]thiazole]
10 | 6.4 µM | 0.0789 µM | 0.114 µM | COc1cc(-c2[nH]c3sc(C4CCC(N5CC[C@@H](NC(C)=O)C5)CC4)nc3c2C(C)C)cn2ncnc12 (single isomer, unassigned) [Example 100]
11 | 4.79 µM | 0.00368 µM | 0.023 µM | COc1cc(-c2[nH]c3sc(C4CCC(N5CC[C@@H](NC(C)=O)C5)CC4)nc3c2C(C)C)cn2ncnc12 (single isomer, unassigned) [Example 101]
12 | 3.89 µM | 0.00037 µM | 0.014 µM | COc1cc(-c2[nH]c3sc(C4CCC(N5CCCOCC5)CC4)nc3c2C(C)C)cn2ncnc12 (single isomer, unassigned) [Example 102, 4-(4-(6-isopropyl-5-(8-methoxy-[1,2,4]triazolo[1,5-a]pyridin-6-yl)-4H-pyrrolo[3,2-d]thiazol-2-yl)cyclohexyl)-1,4-oxazepane]
13 | 3.6 µM | 0.048 µM | 0.00346 µM | COc1cc(-c2[nH]c3sc(C4CCC(N5CCCOCC5)CC4)nc3c2C(C)C)cn2ncnc12 (single isomer, unassigned) [Example 103, 4-(4-(6-isopropyl-5-(8-methoxy-[1,2,4]triazolo[1,5-a]pyridin-6-yl)-4H-pyrrolo[3,2-d]thiazol-2-yl)cyclohexyl)-1,4-oxazepane]
